Laboratory results: ChEMBL document CHEMBL5108067, “Discovery of Potent OTUB1/USP8 Dual Inhibitors Targeting Proteostasis in Non-Small-Cell Lung Cancer” (J Med Chem, 2022)

Molecular target: Ataxin-3 (Homo sapiens, UniProt P54252)
Sequence (P54252 whole entry): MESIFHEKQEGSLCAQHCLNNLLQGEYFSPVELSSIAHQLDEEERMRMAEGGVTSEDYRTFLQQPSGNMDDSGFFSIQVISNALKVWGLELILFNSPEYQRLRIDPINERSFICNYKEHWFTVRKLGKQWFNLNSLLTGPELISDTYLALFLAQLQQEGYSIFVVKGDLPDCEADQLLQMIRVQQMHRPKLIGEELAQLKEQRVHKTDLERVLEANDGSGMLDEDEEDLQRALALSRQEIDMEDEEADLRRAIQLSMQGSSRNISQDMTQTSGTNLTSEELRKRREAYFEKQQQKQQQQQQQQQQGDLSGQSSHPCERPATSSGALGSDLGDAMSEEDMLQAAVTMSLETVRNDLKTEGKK
Assay: Inhibition of Ataxin-3 (unknown origin) using Ub-Rho measured after 0.5 to 3 hrs
Settings: not given
For `CN1CC[C@@H](Oc2ccc(F)c(-c3nc4c(o3)C(=O)c3ccccc3C4=O)c2Cl)C1`, the IC50 was > 10000 nM.
For `CN1CC[C@@H](Oc2ccc(Cl)c(-c3nc4c(o3)C(=O)c3ccccc3C4=O)c2F)C1`, the IC50 was > 10000 nM.
For `CN1CC[C@@H](Oc2ccc(Cl)c(-c3nc4c(o3)C(=O)c3ccccc3C4=O)c2)C1`, the IC50 was > 10000 nM.
For `O=C1c2ccccc2C(=O)c2oc(-c3cccnc3)nc21`, the IC50 was > 10000 nM.

Molecular target: T1, Ubiquitin thioesterase OTUB1 (Homo sapiens, UniProt Q96FW1)
T1 sequence (Q96FW1 whole entry, the tested form may be a part): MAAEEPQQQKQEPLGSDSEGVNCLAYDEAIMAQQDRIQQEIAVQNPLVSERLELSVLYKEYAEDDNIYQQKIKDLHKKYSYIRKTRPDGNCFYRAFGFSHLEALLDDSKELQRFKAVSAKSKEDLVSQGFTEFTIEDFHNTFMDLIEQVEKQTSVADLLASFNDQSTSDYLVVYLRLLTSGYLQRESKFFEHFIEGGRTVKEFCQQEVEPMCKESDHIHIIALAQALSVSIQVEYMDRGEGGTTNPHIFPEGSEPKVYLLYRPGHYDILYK
Assay: Destabilization of N-terminal His-6 tagged OTUB1 (40 to 271 residues) (unknown origin) expressed in Escherichia coli BL21 (DE3) cells assessed as reduction in melting temperature at 200 uM measured for 2 hrs in presence of dithiothreitol by SYPRO orange dye based thermal shift assay
Settings: not given
Work on `CN1CC[C@@H](Oc2ccc(F)c(-c3nc4c(o3)C(=O)c3ccccc3C4=O)c2Cl)C1` yielded a ΔTm of 2.5 °C.
Work on `CN1CC[C@@H](Oc2ccc(Cl)c(-c3nc4c(o3)C(=O)c3ccccc3C4=O)c2F)C1` yielded a ΔTm of 1 °C.
Molecule `CN1CC[C@@H](Oc2ccc(Cl)c(-c3nc4c(o3)C(=O)c3ccccc3C4=O)c2)C1` has a ΔTm of 1 °C.
`O=C1c2ccccc2C(=O)c2oc(-c3cccnc3)nc21` gave a ΔTm of 1 °C.

Molecular target: Ubiquitin carboxyl-terminal hydrolase 7 (Homo sapiens, UniProt Q93009)
Sequence (Q93009 whole entry): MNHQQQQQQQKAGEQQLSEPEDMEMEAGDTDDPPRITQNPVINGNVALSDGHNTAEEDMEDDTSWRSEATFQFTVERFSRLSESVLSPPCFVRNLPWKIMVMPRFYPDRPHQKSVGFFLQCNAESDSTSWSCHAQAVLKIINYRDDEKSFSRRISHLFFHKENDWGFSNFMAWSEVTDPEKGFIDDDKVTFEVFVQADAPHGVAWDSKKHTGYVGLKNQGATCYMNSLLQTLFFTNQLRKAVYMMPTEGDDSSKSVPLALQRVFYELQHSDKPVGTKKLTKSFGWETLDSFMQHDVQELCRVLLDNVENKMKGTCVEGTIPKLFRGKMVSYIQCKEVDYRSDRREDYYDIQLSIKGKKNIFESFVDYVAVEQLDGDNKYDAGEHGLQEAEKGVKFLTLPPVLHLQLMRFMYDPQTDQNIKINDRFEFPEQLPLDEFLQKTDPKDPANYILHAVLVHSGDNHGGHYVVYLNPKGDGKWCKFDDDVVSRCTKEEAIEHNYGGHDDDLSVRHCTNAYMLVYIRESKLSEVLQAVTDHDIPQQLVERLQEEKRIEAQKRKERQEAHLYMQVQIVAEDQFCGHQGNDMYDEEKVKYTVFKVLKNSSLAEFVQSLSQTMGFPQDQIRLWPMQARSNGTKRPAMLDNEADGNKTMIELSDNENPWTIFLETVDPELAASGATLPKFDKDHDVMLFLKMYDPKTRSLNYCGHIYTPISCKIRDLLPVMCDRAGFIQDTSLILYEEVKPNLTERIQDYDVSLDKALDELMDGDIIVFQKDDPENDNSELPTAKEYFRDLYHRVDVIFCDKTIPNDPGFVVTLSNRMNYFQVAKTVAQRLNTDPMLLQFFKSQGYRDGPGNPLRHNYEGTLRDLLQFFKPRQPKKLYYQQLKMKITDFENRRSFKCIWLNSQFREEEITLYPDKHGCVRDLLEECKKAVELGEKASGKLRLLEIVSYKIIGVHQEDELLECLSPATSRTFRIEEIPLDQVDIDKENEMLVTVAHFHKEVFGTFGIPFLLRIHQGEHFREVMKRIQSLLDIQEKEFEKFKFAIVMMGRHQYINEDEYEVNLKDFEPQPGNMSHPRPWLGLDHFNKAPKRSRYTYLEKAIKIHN
Assay: Inhibition of USP7 (unknown origin) using Ub-Rho measured after 0.5 to 3 hrs
Settings: not given
With `CN1CC[C@@H](Oc2ccc(F)c(-c3nc4c(o3)C(=O)c3ccccc3C4=O)c2Cl)C1` the IC50 was > 10000 nM.
For `CN1CC[C@@H](Oc2ccc(Cl)c(-c3nc4c(o3)C(=O)c3ccccc3C4=O)c2F)C1`, the IC50 was > 10000 nM.
With `CN1CC[C@@H](Oc2ccc(Cl)c(-c3nc4c(o3)C(=O)c3ccccc3C4=O)c2)C1` the IC50 was > 10000 nM.
For `O=C1c2ccccc2C(=O)c2oc(-c3cccnc3)nc21`, the IC50 was > 10000 nM.

Molecular target: T2, Ubiquitin carboxyl-terminal hydrolase 8 (Homo sapiens) (UniProt P40818)
T2 sequence (whole entry): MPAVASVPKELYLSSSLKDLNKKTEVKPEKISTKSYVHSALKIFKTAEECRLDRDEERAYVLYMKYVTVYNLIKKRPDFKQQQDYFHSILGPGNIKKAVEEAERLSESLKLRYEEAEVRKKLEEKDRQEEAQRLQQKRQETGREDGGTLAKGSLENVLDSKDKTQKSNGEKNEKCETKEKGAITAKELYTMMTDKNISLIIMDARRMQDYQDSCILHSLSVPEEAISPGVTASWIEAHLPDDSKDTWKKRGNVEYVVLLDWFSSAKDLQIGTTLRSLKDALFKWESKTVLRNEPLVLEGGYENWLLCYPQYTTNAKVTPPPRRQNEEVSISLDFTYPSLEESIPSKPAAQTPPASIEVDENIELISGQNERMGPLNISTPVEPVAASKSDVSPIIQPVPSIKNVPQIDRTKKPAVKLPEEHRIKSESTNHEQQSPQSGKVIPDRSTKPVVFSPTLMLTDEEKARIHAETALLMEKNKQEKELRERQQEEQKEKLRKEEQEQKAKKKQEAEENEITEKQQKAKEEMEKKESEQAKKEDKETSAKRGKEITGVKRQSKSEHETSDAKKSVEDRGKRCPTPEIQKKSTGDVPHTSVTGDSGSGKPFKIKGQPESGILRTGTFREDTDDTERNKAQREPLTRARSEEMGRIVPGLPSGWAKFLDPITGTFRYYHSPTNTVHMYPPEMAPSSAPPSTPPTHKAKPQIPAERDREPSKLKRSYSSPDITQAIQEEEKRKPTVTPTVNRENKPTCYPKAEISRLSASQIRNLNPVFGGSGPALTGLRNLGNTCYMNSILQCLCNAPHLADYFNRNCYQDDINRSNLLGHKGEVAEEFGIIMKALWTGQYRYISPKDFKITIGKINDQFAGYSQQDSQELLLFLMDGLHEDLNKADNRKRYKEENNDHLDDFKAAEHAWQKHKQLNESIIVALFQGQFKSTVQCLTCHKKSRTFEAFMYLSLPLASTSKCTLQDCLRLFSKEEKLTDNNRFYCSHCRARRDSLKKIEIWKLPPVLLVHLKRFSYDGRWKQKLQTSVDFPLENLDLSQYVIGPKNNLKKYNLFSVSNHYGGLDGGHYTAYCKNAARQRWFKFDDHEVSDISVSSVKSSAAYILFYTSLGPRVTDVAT
Assay: Inhibition of N-terminal His-6 tagged USP8 (734 to 1110 residues) (unknown origin) expressed in Escherichia coli BL21 (DE3) cells at 100 nM measured after 3 hrs by fluorescence based Plate reader method relative to control
Settings: values are per cent of control
For `CN1CC[C@@H](Oc2ccc(F)c(-c3nc4c(o3)C(=O)c3ccccc3C4=O)c2Cl)C1`, the residual activity was 16.5%.
In the case of `CN1CC[C@@H](Oc2ccc(Cl)c(-c3nc4c(o3)C(=O)c3ccccc3C4=O)c2F)C1`, the residual activity is reported as 20.5%.
Work on `CN1CC[C@@H](Oc2ccc(Cl)c(-c3nc4c(o3)C(=O)c3ccccc3C4=O)c2)C1` yielded a residual activity of 25%.
Molecule `O=C1c2ccccc2C(=O)c2oc(-c3cccnc3)nc21` has a residual activity of 32.2%.

Molecular target: T2, Ubiquitin carboxyl-terminal hydrolase 8 (Homo sapiens)
Assay: Inhibition of N-terminal His-6 tagged USP8 (734 to 1110 residues) (unknown origin) expressed in Escherichia coli BL21 (DE3) cells at 10 nM measured after 3 hrs by fluorescence based Plate reader method relative to control
Settings: values are per cent of control
In the case of `CN1CC[C@@H](Oc2ccc(F)c(-c3nc4c(o3)C(=O)c3ccccc3C4=O)c2Cl)C1`, the residual activity is reported as 21.7%.
In the case of `CN1CC[C@@H](Oc2ccc(Cl)c(-c3nc4c(o3)C(=O)c3ccccc3C4=O)c2F)C1`, the residual activity is reported as 37.2%.
`CN1CC[C@@H](Oc2ccc(Cl)c(-c3nc4c(o3)C(=O)c3ccccc3C4=O)c2)C1` gave a residual activity of 35.8%.
`O=C1c2ccccc2C(=O)c2oc(-c3cccnc3)nc21` gave a residual activity of 43.4%.

Test system: NCI-H1975
Assay: Antiproliferative activity against human NCI-H1975 cells harboring wild type KRAS incubated for 72 hrs by MTT assay
Assay type: functional, cell-based
Settings: NCI-H1975, 72 h
Molecule `CN1CC[C@@H](Oc2ccc(F)c(-c3nc4c(o3)C(=O)c3ccccc3C4=O)c2Cl)C1` has an IC50 of 118 nM.
For `CN1CC[C@@H](Oc2ccc(Cl)c(-c3nc4c(o3)C(=O)c3ccccc3C4=O)c2F)C1`, the IC50 was 121 nM.
`CN1CC[C@@H](Oc2ccc(Cl)c(-c3nc4c(o3)C(=O)c3ccccc3C4=O)c2)C1` gave an IC50 of 88 nM.
For `O=C1c2ccccc2C(=O)c2oc(-c3cccnc3)nc21`, the IC50 was 98 nM.

Test system: A549
Assay: Antiproliferative activity against human A549 cells harboring KRAS mutant incubated for 72 hrs by MTT assay
Assay type: functional, cell-based
Settings: A549, 72 h
With `CN1CC[C@@H](Oc2ccc(F)c(-c3nc4c(o3)C(=O)c3ccccc3C4=O)c2Cl)C1` the IC50 was 1000 nM.
With `CN1CC[C@@H](Oc2ccc(Cl)c(-c3nc4c(o3)C(=O)c3ccccc3C4=O)c2F)C1` the IC50 was 1260 nM.
`CN1CC[C@@H](Oc2ccc(Cl)c(-c3nc4c(o3)C(=O)c3ccccc3C4=O)c2)C1` gave an IC50 of 701 nM.
In the case of `O=C1c2ccccc2C(=O)c2oc(-c3cccnc3)nc21`, the IC50 is reported as 662 nM.

Molecular target: T3, Ubiquitin carboxyl-terminal hydrolase 1 (Homo sapiens, UniProt O94782)
T3 sequence (O94782 whole entry): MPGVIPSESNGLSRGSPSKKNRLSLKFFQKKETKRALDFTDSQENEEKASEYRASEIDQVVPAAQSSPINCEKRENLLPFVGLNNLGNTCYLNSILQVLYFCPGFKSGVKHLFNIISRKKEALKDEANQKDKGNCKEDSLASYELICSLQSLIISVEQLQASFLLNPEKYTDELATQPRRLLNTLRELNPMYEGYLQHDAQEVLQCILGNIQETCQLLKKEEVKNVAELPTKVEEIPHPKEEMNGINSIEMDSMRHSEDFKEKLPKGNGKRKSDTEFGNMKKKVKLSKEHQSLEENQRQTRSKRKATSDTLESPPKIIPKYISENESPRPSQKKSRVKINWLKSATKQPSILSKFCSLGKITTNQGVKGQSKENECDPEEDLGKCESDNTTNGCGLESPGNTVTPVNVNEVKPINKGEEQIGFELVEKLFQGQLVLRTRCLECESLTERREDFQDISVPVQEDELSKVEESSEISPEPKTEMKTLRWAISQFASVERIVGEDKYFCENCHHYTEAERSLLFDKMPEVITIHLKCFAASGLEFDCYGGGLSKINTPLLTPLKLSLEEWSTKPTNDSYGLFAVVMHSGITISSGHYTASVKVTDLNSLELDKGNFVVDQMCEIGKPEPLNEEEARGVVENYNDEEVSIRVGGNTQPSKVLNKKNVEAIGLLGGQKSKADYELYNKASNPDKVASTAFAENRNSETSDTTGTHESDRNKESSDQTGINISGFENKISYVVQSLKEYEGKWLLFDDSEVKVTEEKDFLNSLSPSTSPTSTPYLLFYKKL
Assay: Inhibition of USP1 (unknown origin) using Ub-Rho measured after 0.5 to 3 hrs
Settings: not given
With `CN1CC[C@@H](Oc2ccc(F)c(-c3nc4c(o3)C(=O)c3ccccc3C4=O)c2Cl)C1` the IC50 was 1370 nM.
Molecule `CN1CC[C@@H](Oc2ccc(Cl)c(-c3nc4c(o3)C(=O)c3ccccc3C4=O)c2F)C1` has an IC50 of 2100 nM.
For `CN1CC[C@@H](Oc2ccc(Cl)c(-c3nc4c(o3)C(=O)c3ccccc3C4=O)c2)C1`, the IC50 was 1900 nM.
With `O=C1c2ccccc2C(=O)c2oc(-c3cccnc3)nc21` the IC50 was 990 nM.

Molecular target: T1, Ubiquitin thioesterase OTUB1
Assay: Inhibition of N-terminal His-6 tagged OTUB1 (40 to 271 residues) (unknown origin) expressed in Escherichia coli BL21 (DE3) cells at 100 nM using Ub-Rho measured after 0.5 to 3 hrs by fluorescence based Plate reader method relative to control
Settings: time 0.5-3 hrs, values are per cent of control
`CN1CC[C@@H](Oc2ccc(F)c(-c3nc4c(o3)C(=O)c3ccccc3C4=O)c2Cl)C1` gave a residual activity of 7.3%.
Molecule `CN1CC[C@@H](Oc2ccc(Cl)c(-c3nc4c(o3)C(=O)c3ccccc3C4=O)c2F)C1` has a residual activity of 7.4%.
Work on `CN1CC[C@@H](Oc2ccc(Cl)c(-c3nc4c(o3)C(=O)c3ccccc3C4=O)c2)C1` yielded a residual activity of 13.7%.
Work on `O=C1c2ccccc2C(=O)c2oc(-c3cccnc3)nc21` yielded a residual activity of 18.2%.

Molecular target: T4, Ubiquitin carboxyl-terminal hydrolase 8 (Homo sapiens, UniProt P40818)
T4 sequence (P40818 whole entry): T2 sequence (whole entry)
Assay: Inhibition of N-terminal His-6 tagged USP8 (734 to 1110 residues) (unknown origin) expressed in Escherichia coli BL21 (DE3) cells measured after 3 hrs by fluorescence based Plate reader method
Settings: not given
For `CN1CC[C@@H](Oc2ccc(F)c(-c3nc4c(o3)C(=O)c3ccccc3C4=O)c2Cl)C1`, the IC50 was 0.28 nM.
For `CN1CC[C@@H](Oc2ccc(Cl)c(-c3nc4c(o3)C(=O)c3ccccc3C4=O)c2F)C1`, the IC50 was 2 nM.
In the case of `CN1CC[C@@H](Oc2ccc(Cl)c(-c3nc4c(o3)C(=O)c3ccccc3C4=O)c2)C1`, the IC50 is reported as 1.27 nM.
Molecule `O=C1c2ccccc2C(=O)c2oc(-c3cccnc3)nc21` has an IC50 of 2.7 nM.

Test system: not listed separately
Assay: Aqueous solubility of the compound measured after 24 hr by […] LC-MS/MS analysis
Assay type: physicochemical
Settings: buffer
With `CN1CC[C@@H](Oc2ccc(F)c(-c3nc4c(o3)C(=O)c3ccccc3C4=O)c2Cl)C1` the solubility was “Soluble”.
With `CN1CC[C@@H](Oc2ccc(Cl)c(-c3nc4c(o3)C(=O)c3ccccc3C4=O)c2F)C1` the solubility was “Soluble”.
With `CN1CC[C@@H](Oc2ccc(Cl)c(-c3nc4c(o3)C(=O)c3ccccc3C4=O)c2)C1` the solubility was “Soluble”.

Molecular target: T1, Ubiquitin thioesterase OTUB1
Assay: Inhibition of N-terminal His-6 tagged OTUB1 (40 to 271 residues) (unknown origin) expressed in Escherichia coli BL21 (DE3) cells at 10 nM using Ub-Rho measured after 0.5 to 3 hrs by fluorescence based Plate reader method relative to control
Settings: time 0.5-3 hrs, values are per cent of control
In the case of `CN1CC[C@@H](Oc2ccc(F)c(-c3nc4c(o3)C(=O)c3ccccc3C4=O)c2Cl)C1`, the residual activity is reported as 10.5%.
With `CN1CC[C@@H](Oc2ccc(Cl)c(-c3nc4c(o3)C(=O)c3ccccc3C4=O)c2F)C1` the residual activity was 10.7%.
In the case of `CN1CC[C@@H](Oc2ccc(Cl)c(-c3nc4c(o3)C(=O)c3ccccc3C4=O)c2)C1`, the residual activity is reported as 28.9%.
In the case of `O=C1c2ccccc2C(=O)c2oc(-c3cccnc3)nc21`, the residual activity is reported as 42.4%.
